The values below come from patent US10894786B2, “Substituted pyrazole derivatives as selective CDK12/13 inhibitors” (Aurigene Discovery Technologies Limited, priority 2018, dated 2021).

Where two headings read alike, the source gives them in different places. Some results are limits rather than exact numbers.

For test [1], the target named is T1, CDK12 (Homo sapiens (Human), UniProt Q9NYV4). In words: Biochemical assay for CDK12 (Kd determination), kinase-tagged phage/qPCR competition binding. The procedure:
Kinase-tagged T7 phage strains were grown in parallel in 24-well blocks in an E. coli host derived from the BL21 strain. E. coli were grown to log-phase and infected with T7 phage from a frozen stock (multiplicity of infection=0.4) and incubated with shaking at 32° C. until lysis (90-150 minutes). The lysates were centrifuged (6,000×g) and filtered (0.2 μm) to remove cell debris. The remaining kinases were produced in HEK-293 cells and subsequently tagged with DNA for qPCR detection. […] The liganded beads were blocked with excess biotin and washed with blocking buffer (SeaBlock (Pierce), 1% BSA, 0.05% Tween 20, 1 mM DTT) to remove unbound ligand and to reduce non-specific phage binding. […] Test compounds were prepared as 40× stocks in 100% DMSO and directly diluted into the assay. All reactions were performed in polypropylene 384-well plates in a final volume of 0.02 ml. […] The kinase concentration in the eluates was measured by qPCR.
In general terms: Real-time PCR tracks product formation cycle by cycle.
Target sequence in this assay (Q9NYV4 whole entry, species assumed): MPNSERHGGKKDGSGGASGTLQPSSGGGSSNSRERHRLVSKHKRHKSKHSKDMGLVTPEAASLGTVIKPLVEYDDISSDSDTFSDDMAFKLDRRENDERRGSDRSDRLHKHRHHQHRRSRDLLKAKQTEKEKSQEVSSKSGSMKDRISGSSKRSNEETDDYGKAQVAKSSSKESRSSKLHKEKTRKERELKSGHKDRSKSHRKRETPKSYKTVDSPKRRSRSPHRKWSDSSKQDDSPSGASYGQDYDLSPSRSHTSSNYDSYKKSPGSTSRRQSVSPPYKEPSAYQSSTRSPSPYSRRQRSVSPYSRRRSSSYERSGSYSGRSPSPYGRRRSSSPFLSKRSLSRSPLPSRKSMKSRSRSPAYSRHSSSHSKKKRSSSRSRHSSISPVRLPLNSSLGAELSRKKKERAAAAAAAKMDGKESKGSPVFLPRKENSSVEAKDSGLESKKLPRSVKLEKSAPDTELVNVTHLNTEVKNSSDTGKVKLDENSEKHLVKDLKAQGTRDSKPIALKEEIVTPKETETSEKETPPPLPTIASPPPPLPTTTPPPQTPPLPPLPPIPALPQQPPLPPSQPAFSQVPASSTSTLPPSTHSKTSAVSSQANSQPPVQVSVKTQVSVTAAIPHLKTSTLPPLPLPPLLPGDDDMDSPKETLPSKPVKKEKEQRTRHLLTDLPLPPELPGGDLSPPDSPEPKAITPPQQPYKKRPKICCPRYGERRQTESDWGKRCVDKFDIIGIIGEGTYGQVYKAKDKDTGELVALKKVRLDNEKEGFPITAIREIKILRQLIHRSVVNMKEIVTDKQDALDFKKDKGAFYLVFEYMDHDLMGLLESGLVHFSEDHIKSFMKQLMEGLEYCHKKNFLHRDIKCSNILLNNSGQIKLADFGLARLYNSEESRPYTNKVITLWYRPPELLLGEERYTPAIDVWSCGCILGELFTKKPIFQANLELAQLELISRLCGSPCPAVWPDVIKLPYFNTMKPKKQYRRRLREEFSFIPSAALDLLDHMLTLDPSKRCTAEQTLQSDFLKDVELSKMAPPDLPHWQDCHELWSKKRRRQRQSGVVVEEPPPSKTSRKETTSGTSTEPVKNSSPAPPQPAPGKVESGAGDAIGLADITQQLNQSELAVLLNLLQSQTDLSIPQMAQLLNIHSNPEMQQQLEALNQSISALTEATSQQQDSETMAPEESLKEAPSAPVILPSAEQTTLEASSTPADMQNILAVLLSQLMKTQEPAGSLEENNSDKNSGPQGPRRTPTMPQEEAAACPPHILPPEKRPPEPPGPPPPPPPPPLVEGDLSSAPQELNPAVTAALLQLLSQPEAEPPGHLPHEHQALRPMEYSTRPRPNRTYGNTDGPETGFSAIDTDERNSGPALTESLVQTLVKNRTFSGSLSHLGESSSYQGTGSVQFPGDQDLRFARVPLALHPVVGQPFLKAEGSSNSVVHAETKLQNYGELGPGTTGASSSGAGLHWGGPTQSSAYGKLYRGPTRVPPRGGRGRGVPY

The target of test [2] is CDK13 (Homo sapiens (Human), UniProt Q14004). In words: Biochemical assay for CDK13, LanthaScreen Eu Kinase Binding Assay. To be noted: for IC50: kinase tracer 236 100 nM; for Ratio CDK7/CDK13: ratio of IC50. The text has this:
Binding of an inhibitor to the kinase competes for binding with the tracer, resulting in a loss of FRET signal.

For test [3], the target named is T1, CDK12. In words: Biochemical assay for CDK12 (IC50 determination), LANCE TR-FRET. The settings on record: for IC50: ATP 100 μM, 60 min pre-incubation. On the procedure: The inhibitory activity of the test compounds was assessed by the LANCE TR-FRET assay, which detects the ATP-dependent phosphorylation of an ULight-4E-BP1 (Thr37/Thr46) substrate peptide (100 nM) by CDK12 (30 nM). Briefly, the enzyme reaction was run in reaction buffer (25 mM HEPES (pH 7.5), 10 mM MgCl2, 0.01% BSA, 0.01% Triton x, 1 mM DTT). The assay was performed in 384-well plate format. The end concentration of the ATP substrate was 100 μM, and that of the ULight-4E-BP1 (Thr37/Thr46) substrate peptide was 100 nM, and of CDK12 was 30 nM. Pre-incubation of the compound and enzyme was performed for 60 min at room temperature. After 60 min incubation at room temperature, the reaction was terminated by the addition of 40 mM EDTA and 0.5 nM Eu-labeled anti-phospho-eIF4E-binding protein (Thr37/46) antibody in LANCE detection buffer. […] The readout was calculated as (acceptor counts/donor counts)×1000. The IC50 values were derived by fitting a sigmoidal dose-response curve to a plot of assay readout over inhibitor concentration.
Target sequence in this assay (Q9NYV4 whole entry, looked up, species assumed): as the sequence (Q9NYV4 whole entry, species assumed) above
Target sequence in this assay (O75909 whole entry partner, looked up, species assumed): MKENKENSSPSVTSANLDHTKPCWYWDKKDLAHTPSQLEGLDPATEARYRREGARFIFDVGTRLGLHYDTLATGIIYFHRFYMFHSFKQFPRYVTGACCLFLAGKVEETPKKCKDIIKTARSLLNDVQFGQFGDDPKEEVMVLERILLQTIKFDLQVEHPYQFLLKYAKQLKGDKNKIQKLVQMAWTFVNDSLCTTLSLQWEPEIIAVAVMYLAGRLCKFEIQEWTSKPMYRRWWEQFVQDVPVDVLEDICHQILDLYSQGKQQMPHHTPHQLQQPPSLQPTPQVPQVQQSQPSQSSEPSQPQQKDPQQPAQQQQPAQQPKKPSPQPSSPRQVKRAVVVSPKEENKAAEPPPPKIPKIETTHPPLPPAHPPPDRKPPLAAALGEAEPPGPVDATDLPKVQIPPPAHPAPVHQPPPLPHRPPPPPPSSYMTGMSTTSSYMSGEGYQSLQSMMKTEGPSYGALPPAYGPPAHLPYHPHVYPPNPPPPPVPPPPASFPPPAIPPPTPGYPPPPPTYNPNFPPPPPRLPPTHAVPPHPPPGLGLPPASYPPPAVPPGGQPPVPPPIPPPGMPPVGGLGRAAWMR

In test [4] the target is CDK7 (Homo sapiens (Human), UniProt P50613). The experiment in a line: Biochemical assay for CDK7, LANCE TR-FRET. To be noted: ATP 1 mM/100 μM, 60 min pre-incubation; read-out: CDK 7 IC50. On the procedure:
The inhibitory activity of the test compounds was assessed by the LANCE TR-FRET assay, which detects the ATP-dependent phosphorylation of an ULight-myelin basic protein (MBP) substrate peptide (100 nM) by CDK7 (10 nM). Briefly, the enzyme reaction was run in reaction buffer (20 mM HEPES (pH 7.5), 10 mM MgCl2, 0.01% Triton x, 100 μM Sodium Orthovanadate, 1 mM DTT). The assay was performed in 384-well plate. The end concentration of the ATP substrate was 1 mM/100 μM, and that of the ULight-MBP substrate peptide was 100 nM, and of CDK7 was 10 nM. Pre-incubation of the compound and enzyme was performed for 60 min at room temperature. After 60 min incubation at room temperature, the reaction was terminated by the addition of 40 mM EDTA and 1 nM Eu-labeled anti-phospho-MBP-binding protein antibody in the buffer. […] The readout was calculated as (acceptor counts/donor counts)×1000. The IC50 values were derived by fitting a sigmoidal dose-response curve to a plot of assay readout over inhibitor concentration.

Chain of CDK13 (Q14004 whole entry, looked up, species assumed): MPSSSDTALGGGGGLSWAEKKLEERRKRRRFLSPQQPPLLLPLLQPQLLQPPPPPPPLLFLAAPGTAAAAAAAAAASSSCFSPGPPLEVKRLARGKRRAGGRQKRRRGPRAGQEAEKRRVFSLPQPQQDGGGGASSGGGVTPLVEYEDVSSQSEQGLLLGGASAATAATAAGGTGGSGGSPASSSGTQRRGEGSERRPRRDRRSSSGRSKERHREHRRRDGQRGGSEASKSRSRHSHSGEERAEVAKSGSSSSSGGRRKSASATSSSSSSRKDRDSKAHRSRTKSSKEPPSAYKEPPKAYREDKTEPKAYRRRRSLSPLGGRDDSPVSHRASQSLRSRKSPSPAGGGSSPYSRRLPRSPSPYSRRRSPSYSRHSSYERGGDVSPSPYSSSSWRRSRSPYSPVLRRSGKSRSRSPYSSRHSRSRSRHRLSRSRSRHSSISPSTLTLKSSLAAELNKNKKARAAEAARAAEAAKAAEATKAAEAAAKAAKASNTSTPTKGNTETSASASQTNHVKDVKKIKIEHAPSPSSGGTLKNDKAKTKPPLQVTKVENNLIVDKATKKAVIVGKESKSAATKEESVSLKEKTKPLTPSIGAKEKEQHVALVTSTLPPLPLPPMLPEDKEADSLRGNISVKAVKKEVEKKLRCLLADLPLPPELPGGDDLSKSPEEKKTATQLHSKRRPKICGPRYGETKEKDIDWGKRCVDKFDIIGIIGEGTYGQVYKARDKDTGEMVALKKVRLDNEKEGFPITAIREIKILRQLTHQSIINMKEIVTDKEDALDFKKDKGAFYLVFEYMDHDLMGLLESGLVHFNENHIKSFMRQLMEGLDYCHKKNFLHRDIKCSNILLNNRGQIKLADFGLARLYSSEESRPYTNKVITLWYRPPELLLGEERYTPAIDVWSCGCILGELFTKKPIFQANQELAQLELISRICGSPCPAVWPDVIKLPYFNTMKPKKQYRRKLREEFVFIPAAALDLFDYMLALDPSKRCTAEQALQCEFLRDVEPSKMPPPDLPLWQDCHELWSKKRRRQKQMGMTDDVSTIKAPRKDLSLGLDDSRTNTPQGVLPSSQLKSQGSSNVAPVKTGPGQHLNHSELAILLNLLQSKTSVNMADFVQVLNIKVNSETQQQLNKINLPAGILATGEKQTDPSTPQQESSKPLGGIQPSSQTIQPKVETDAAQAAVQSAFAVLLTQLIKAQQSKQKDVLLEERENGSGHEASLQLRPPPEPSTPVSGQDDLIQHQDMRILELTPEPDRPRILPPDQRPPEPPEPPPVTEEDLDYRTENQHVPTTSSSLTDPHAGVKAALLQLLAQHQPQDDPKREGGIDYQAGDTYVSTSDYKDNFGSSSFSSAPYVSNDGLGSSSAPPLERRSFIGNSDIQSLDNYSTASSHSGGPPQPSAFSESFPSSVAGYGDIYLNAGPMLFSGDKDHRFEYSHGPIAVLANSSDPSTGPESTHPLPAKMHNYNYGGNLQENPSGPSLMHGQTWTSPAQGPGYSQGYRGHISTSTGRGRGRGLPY
Chain of CDK13 (O75909 whole entry partner, looked up, species assumed): as the sequence (O75909 whole entry partner, looked up, species assumed) above
Chain of CDK7 (P50613 whole entry, looked up, species assumed): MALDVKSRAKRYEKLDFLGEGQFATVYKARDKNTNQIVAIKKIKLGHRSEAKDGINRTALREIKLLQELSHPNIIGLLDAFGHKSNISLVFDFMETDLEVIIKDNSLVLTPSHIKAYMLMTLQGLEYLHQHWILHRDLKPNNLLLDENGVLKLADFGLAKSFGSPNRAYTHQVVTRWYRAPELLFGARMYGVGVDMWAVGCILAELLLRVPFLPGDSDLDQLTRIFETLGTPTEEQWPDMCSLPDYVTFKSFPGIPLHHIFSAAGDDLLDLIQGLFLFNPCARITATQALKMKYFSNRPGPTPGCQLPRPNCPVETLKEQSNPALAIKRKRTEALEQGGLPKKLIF
Chain of CDK7 (P51946 whole entry partner, looked up, species assumed): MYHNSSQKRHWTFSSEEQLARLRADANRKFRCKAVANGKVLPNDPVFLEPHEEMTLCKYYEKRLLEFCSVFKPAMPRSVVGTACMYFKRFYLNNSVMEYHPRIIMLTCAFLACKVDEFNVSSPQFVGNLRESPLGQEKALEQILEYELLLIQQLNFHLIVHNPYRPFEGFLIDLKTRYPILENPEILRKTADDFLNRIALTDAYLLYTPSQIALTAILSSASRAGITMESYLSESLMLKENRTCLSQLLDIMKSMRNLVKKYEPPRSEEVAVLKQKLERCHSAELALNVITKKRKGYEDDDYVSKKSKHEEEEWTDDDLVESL
Chain of CDK7 (P51948 whole entry partner, looked up, species assumed): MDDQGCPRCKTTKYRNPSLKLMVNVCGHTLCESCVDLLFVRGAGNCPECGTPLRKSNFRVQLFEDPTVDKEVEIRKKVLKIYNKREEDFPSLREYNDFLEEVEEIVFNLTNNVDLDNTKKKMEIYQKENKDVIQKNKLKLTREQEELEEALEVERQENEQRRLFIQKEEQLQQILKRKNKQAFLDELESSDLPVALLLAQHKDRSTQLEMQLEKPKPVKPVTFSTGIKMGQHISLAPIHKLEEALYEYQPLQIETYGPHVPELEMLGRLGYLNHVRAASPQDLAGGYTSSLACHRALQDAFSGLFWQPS

One may read the Kd as the constant that tells how readily two partners part at equilibrium. A high value points to lower affinity. Broadly, the IC50 is the point on the concentration scale where inhibition reaches its midpoint. Consider `C=CC(=O)N1CCN(c2ccc(C(C)C(=O)Nc3cc(C4CC4)[nH]n3)cc2)CC1` (single isomer, unassigned) [Compound 19, 2-(4-(4-acryloylpiperazin-1-yl)phenyl)-N-(5-cyclopropyl-1H-pyrazol-3-yl)propanamide], for which the dissociation constant (Kd) in test [1] is > 100 nM. In addition, the IC50 in test [2] is 5810 nM.
`C=CC(=O)N1CCC=C(c2ccc(C(C)C(=O)Nc3cc(C4CC4)[nH]n3)cn2)C1` (single isomer, unassigned) [Compound 36, 2-(1′-acryloyl-1′,2′,5′,6′-tetrahydro-[2,3′-bipyridin]-5-yl)-N-(5-cyclopropyl-1H-pyrazol-3-yl)propanamide] showed a Kd in test [1] of 25 to 100 nM. Further, the IC50 in test [2] amounted to 153 nM; in test [3] it was 686 nM.
With `C=CC(=O)NC1CCC(c2ccc(C(C)C(=O)Nc3cc(C4CC4)n[nH]3)cc2)CC1` (stereo not shown) [Compound 10, N-(4-(4-(1-((5-cyclopropyl-1H-pyrazol-3-yl)amino)-1-oxopropan-2-yl)phenyl)cyclohexyl)acrylamide], the “Ratio CDK7/CDK13” value in test [2] stood at 305.11. For the same compound, the “Ratio CDK7/CDK12” value in test [3] (ratio of IC50) is 7.42.
In the case of `C=CC(=O)NC1CCC(c2ccc(C(C)C(=O)Nc3cc(C4CC4)n[nH]3)cc2)CC1` (stereo not shown) [Compound 11, N-(4-(4-(1-((5-cyclopropyl-1H-pyrazol-3-yl)amino)-1-oxopropan-2-yl)phenyl)cyclohexyl)acrylamide], in test [2], the “Ratio CDK7/CDK13” value worked out at 81.02. In addition, in test [3] (ratio of IC50), the “Ratio CDK7/CDK12” value is 3.57.
Regarding `C=CC(=O)N1CCC(c2ccc(C(C)C(=O)Nc3cc(C4CC4)[nH]n3)cn2)CC1` (stereo not shown) [Compound 13, 2-(6-(1-acryloylpiperidin-4-yl)pyridin-3-yl)-N-(5-cyclopropyl-1H-pyrazol-3-yl)propanamide], the concentration for half-maximal inhibition (IC50) in test [2] was 28 nM; in test [3] it was 58 nM; in test [4], > 10000 nM. Further, the “Ratio CDK7/CDK13” value in test [2] was determined as 357.14. In addition, the “Ratio CDK7/CDK12” value in test [3] was found to be 172.41.
As for `C[C@H](C(=O)Nc1cc(C2CC2)[nH]n1)c1ccc(C2=CCN(C(=O)/C=C/CN3CCOCC3)CC2)cc1` [Compound 16, (S,E)-N-(5-cyclopropyl-1H-pyrazol-3-yl)-2-(4-(1-(4-morpholinobut-2-enoyl)-1,2,3,6-tetrahydropyridin-4-yl)phenyl)propanamide], the IC50 in test [2] amounted to 35 nM; in test [3], 646 nM.
Turning to `C=CC(=O)N1CCN(c2ccc(C(C)C(=O)Nc3cc(C4CC4)[nH]n3)cc2)CC1` (stereo not shown) [Compound 18, 2-(4-(4-acryloylpiperazin-1-yl)phenyl)-N-(5-cyclopropyl-1H-pyrazol-3-yl)propanamide], the “Ratio CDK7/CDK13” value in test [2] amounted to 198.46. For the same compound, in test [3] (ratio of IC50), the “Ratio CDK7/CDK12” value was determined as 9.75.
Take `C=CC(=O)N1CC=C(c2ccc(C(C)C(=O)Nc3cc(C4CC4)[nH]n3)cn2)C1` (stereo not shown) [Compound 38, 2-(6-(1-acryloyl-2,5-dihydro-1H-pyrrol-3-yl)pyridin-3-yl)-N-(5-cyclopropyl-1H-pyrazol-3-yl)propanamide]: in test [2], the IC50 was 100 nM and the “Ratio CDK7/CDK13” value is given as 10.1. Further, in test [3], the “Ratio CDK7/CDK12” value is given as 29.7 and the IC50 stood at 34 nM. Further, the IC50 in test [4] was found to be 1010 nM.
With `C=CC(=O)N1CCC=C(c2ccc(C(CC)C(=O)Nc3cc(C4CC4)[nH]n3)cn2)C1` (stereo not shown) [Compound 39, 2-(1′-acryloyl-1′,2′,5′,6′-tetrahydro-[2,3′-bipyridin]-5-yl)-N-(5-cyclopropyl-1H-pyrazol-3-yl)butanamide], the results for the IC50 in test [2] and in test [3] were 93 nM and 41 nM, respectively.
Regarding `C=CC(=O)N1CCCC(c2ccc(C(C)C(=O)Nc3cc(C4CC4)[nH]n3)cn2)C1` (stereo not shown) [Compound 41, 2-(6-(1-acryloylpiperidin-3-yl)pyridin-3-yl)-N-(5-cyclopropyl-1H-pyrazol-3-yl)propanamide], in test [2], the IC50 was found to be 29 nM and the “Ratio CDK7/CDK13” value was 121.03. Also, in test [3], the “Ratio CDK7/CDK12” value came out at 9.91 and inhibition was half-maximal at 354 nM (IC50). Also, in test [4], the IC50 was found to be 3510 nM.
In the same order, the values of `C=CC(=O)N1CCC=C(c2ccc(C(C)C(=O)Nc3cc(C4CC4)[nH]n3)cc2F)C1` (stereo not shown) [Compound 42, 2-(4-(1-acryloyl-1,2,5,6-tetrahydropyridin-3-yl)-3-fluorophenyl)-N-(5-cyclopropyl-1H-pyrazol-3-yl)propanamide] are 87 nM, 5.05, 31.42, 14 nM and 440 nM.
As to `C=CC(=O)N1CCC=C(c2ccc(C(C(=O)Nc3cc(C4CC4)[nH]n3)C(C)C)cn2)C1` (stereo not shown) [Compound 43, 2-(1′-acryloyl-1′,2′,5′,6′-tetrahydro-[2,3′-bipyridin]-5-yl)-N-(5-cyclopropyl-1H-pyrazol-3-yl)-3-methylbutanamide], the IC50 in test [2] stood at 54 nM; in test [3], 178 nM.
As to `C=CC(=O)N1CC=C(c2ccc(C(C)C(=O)Nc3cc(C4CC4)[nH]n3)cc2F)CC1` (stereo not shown) [Compound 45, 2-(4-(1-acryloyl-1,2,3,6-tetrahydropyridin-4-yl)-3-fluorophenyl)-N-(5-cyclopropyl-1H-pyrazol-3-yl)propanamide], in test [2], the IC50 came to 260 nM and the “Ratio CDK7/CDK13” value stood at 22.15. For the same compound, in test [3], the “Ratio CDK7/CDK12” value is 12.94 and inhibition was half-maximal at 445 nM (IC50). Also, in test [4], the IC50 was 5760 nM.
With `C=CC(=O)N1CC=C(c2ccc(C(C)C(=O)Nc3cc(C4CC4)[nH]n3)cn2)C1` (stereo not shown) [Compound 47, 2-(6-(1-acryloyl-2,5-dihydro-1H-pyrrol-3-yl)pyridin-3-yl)-N-(5-cyclopropyl-1H-pyrazol-3-yl)propanamide], the IC50 in test [2] came out at 6 nM; in test [3], 676 nM.
`CC#CC(=O)N1CC=C(c2ccc(C(C)C(=O)Nc3cc(C4CC4)[nH]n3)cn2)CC1` (stereo not shown) [Compound 51, 2-(1′-(but-2-ynoyl)-1′,2′,3′,6′-tetrahydro-[2,4′-bipyridin]-5-yl)-N-(5-cyclopropyl-1H-pyrazol-3-yl)propanamide]: in test [2], the IC50 was found to be 25 nM and the “Ratio CDK7/CDK13” value was found to be 67.68. For the same compound, in test [3], the “Ratio CDK7/CDK12” value is recorded as 8.33 and inhibition was half-maximal at 203 nM (IC50). The IC50 in test [4] worked out at 1690 nM.
On to `C/C=C/C(=O)N1CCC=C(c2ccc(CC(=O)Nc3cc(C4CC4)[nH]n3)cn2)C1` [Compound 54, (E)-2-(1′-(but-2-enoyl)-1′,2′,5′,6′-tetrahydro-[2,3′-bipyridin]-5-yl)-N-(5-cyclopropyl-1H-pyrazol-3-yl)acetamide], for which the IC50 stood at 3 nM in test [2] and 94 nM in test [3].
The compound `CC(C)=CC(=O)N1CCC=C(c2ccc(CC(=O)Nc3cc(C4CC4)[nH]n3)cn2)C1` [Compound 55, N-(5-cyclopropyl-1H-pyrazol-3-yl)-2-(1′-(3-methylbut-2-enoyl)-1′,2′,5′,6′-tetrahydro-[2,3′-bipyridin]-5-yl)acetamide] displayed an IC50 in test [3] of 178 nM.
In the case of `C=C(C)C(=O)N1CCC=C(c2ccc(CC(=O)Nc3cc(C4CC4)[nH]n3)cn2)C1` [Compound 57, N-(5-cyclopropy1-1H-pyrazol-3-yl)-2-(1′-methacryloyl-1′,2′,5′,6′-tetrahydro-[2,3′-bipyridin]-5-yl)acetamide], the IC50 in test [2] amounted to 10 nM; in test [3], 140 nM.
In the case of `N#CN1CC=C(c2ccc(CC(=O)Nc3cc(C4CC4)[nH]n3)cn2)CC1` [Compound 62, 2-(1′-cyano-1′,2′,3′,6′-tetrahydro-[2,4′-bipyridin]-5-yl)-N-(5-cyclopropyl-1H-pyrazol-3-yl)acetamide], half-maximal inhibition in test [3] (IC50) required 4 nM.
